Seven molecules from patent publication US20250161216A1, “CATIONIC LIPID ANALOGUES, COMPOSITIONS AND USES THEREOF” (GUANGZHOU LIDE BIOMEDICINE TECHNOLOGY CO., LTD., priority 2022, published 2025) can be followed below.

For series [1], the system named is C57BL/6 mice. Briefly: In vivo expression level of Luciferase-mRNA delivered by tracheal injection (bioluminescence imaging). Particulars: mRNA-loaded nanoparticles, 5 μg Luciferase-mRNA, 6 hours. The procedure:
(§1) Luciferase-mRNA was used as an mRNA model; and the cationic lipid analogue A1I4R22C18-2 of Example 2 was used to prepare drug-loaded nanoparticles according to the method of Example 6.
100 μL of nanoparticles containing 5 μg Luciferase-mRNA or the drug-loaded nanoparticles prepared above were tracheally injected into 6-8 week-old C57BL/6 mice, and 200 μL of 1×PBS solution containing 3 mg D-Luciferin potassium salt was intraperitoneally injected into the mice 6 hours later. After waiting for 10 min, an in vivo mRNA expression level was evaluated by bioluminescence imaging.

Series [2] deals with C57BL/6 mice. Kind of series: In vivo expression level of Luciferase-mRNA delivered by intramuscular injection (bioluminescence imaging). The settings on record: mRNA-loaded nanoparticles, intramuscular (leg muscle), 5 μg Luciferase-mRNA, 6 hours. An outline of the steps:
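LNPs prepared with cationic lipid analogues carrying 5 μg Luciferase-mRNA injected into leg muscle of 6-8 week-old C57BL/6 mice. D-Luciferin (3 mg, i.p.) given 6 h post-dose; bioluminescence imaged 10 min later as in vivo mRNA expression level.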

A short description of series [3]: Characterization of the lipid nanoparticles prepared in Example 6. In kind it is physicochemical. The settings on record: cationic lipid analogue:cholesterol:DSPC:DMG-PEG 50:38.5:10:1.5. The source says:
The drug-loaded nanoparticle included a cationic lipid analogue, cholesterol, distearoylphosphatidylcholine (DSPC), and 1,2-dimyristoyl-rac-glycerol-3-methoxypolyethylene glycol (DMG-PEG), • wherein a molar ratio of the cationic lipid analogue:cholesterol:DSPC:DMG-PEG was 50:38.5:10:1.5.
In the drug-loaded nanoparticle, a mass ratio of the cationic lipid analogue to the nucleic acid drug, such as mRNA or siRNA, etc., was 11:1.
A cationic lipid analogue, cholesterol, DSPC, and DMG-PEG were dissolved in an ethanol solution, and mixed in the above-mentioned molar ratio to obtain an organic phase. Then, an mRNA nucleic acid drug at a corresponding mass ratio was dissolved in a sodium acetate buffer solution (25 mM, pH=3.0) to obtain an aqueous phase, so that a volume ratio of the aqueous phase to the organic phase was 3:1. Then, the aqueous phase was quickly added to the organic phase and mixed evenly, and the mixture was allowed to stand for 10 minutes. After that, the mixture was put into a 1000 Da dialysis bag, and dialyzed in a 1×PBS solution at 4° C. for 2 hours to obtain the nanoparticle that can be directly used for injection.

Series [4] concerns C57BL/6 mice. Briefly: In vivo expression level of Luciferase-mRNA delivered by intravenous injection (bioluminescence imaging). The settings on record: mRNA-loaded nanoparticles, intravenous (tail vein), 5 μg Luciferase-mRNA, 6 hours. The gist of the method: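 Lipid nanoparticles carrying 5 μg Luciferase-mRNA given by tail-vein injection to 6-8-week-old C57BL/6 mice. At 6 h, 3 mg D-luciferin i.p. in PBS; bioluminescence imaged 10 min later as the expression read-out.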

The test system of series [5] is C57BL/6 mice. Kind of series: In vivo expression level of Luciferase-mRNA delivered by intraperitoneal injection (bioluminescence imaging). Particulars: mRNA-loaded nanoparticles, 5 μg Luciferase-mRNA, 6 hours. The procedure:
as §1
200 μL of nanoparticles containing 5 μg Luciferase-mRNA or the drug-loaded nanoparticles prepared above were intraperitoneally injected into 6-8 week-old C57BL/6 mice, and 200 μL of 1×PBS solution containing 3 mg D-Luciferin potassium salt was intraperitoneally injected into the mice 6 hours later. After waiting for 10 minutes, an in vivo mRNA expression level of the m-RNA was evaluated by bioluminescence imaging.

On to `CCCCC/C=C\C/C=C\CCCCCCCC(=O)N(CCO)C(C(=O)NCCN(C)CCNC(=O)C(C(C)C)N(CCO)C(=O)CCCCCCC/C=C\C/C=C\CCCCC)C(C)C` (centres unmarked) [A1I4R22C18-2], for which the “Fluorescence intensity of spleen” value in series [1] is listed as 2.54E+05. In series [2] (compounds of Example 2), this molecule had a Local fluorescence intensity of 2.69E+05. For the same molecule, in series [3], the “Diameter of the nanoparticles” value is on record as 133 ± 6 nm, the PDI was found to be 0.17, the Zeta potential was −5.5 mV and the encapsulation efficiency was found to be 62.1%. Moreover, the “Fluorescence intensity of spleen” value in series [4] (compounds of Example 2) was found to be 1.47E+06. The “Fluorescence intensity of spleen” value in series [5] is recorded as 6.48E+06.
With `CCCCCCCCCCSSCCC(=O)N(CCO)C(C(=O)NCCN(CCNC(=O)C(C(C)C)N(CCO)C(=O)CCSSCCCCCCCCCC)CCNC(=O)C(C(C)C)N(CCO)C(=O)CCSSCCCCCCCCCC)C(C)C` (centres unmarked) [A1I5R22S15], in series [2] (compounds of Example 3), the Local fluorescence intensity stood at 1.50E+06. Besides, in series [3], the “Diameter of the nanoparticles” value is recorded as 144 ± 7 nm, the PDI was 0.22, the Zeta potential is listed as −7.2 mV and the encapsulation efficiency came to 65.4%. Moreover, in series [4] (compounds of Example 3), the “Fluorescence intensity of spleen” value worked out at 3.40E+06.
In turn, `CCCCC/C=C\C/C=C\CCCCCCCC(=O)N(CCN(CCN(C(=O)CCCCCCC/C=C\C/C=C\CCCCC)C(C(=O)NCC(=O)OCC)C(C)C)CCN(C(=O)CCCCCCC/C=C\C/C=C\CCCCC)C(C(=O)NCC(=O)OCC)C(C)C)C(C(=O)NCC(=O)OCC)C(C)C` (centres unmarked) [A1I32R47C18-2] returned a Local fluorescence intensity in series [2] (compounds of Example 5) of 3.68E+04. Further, in series [3], the “Diameter of the nanoparticles” value is 150 ± 9 nm, the PDI came to 0.21, the Zeta potential was −3.1 mV and the encapsulation efficiency is on record as 60.5%. In series [4] (compounds of Example 5), the “Fluorescence intensity of spleen” value was determined as 8.50E+03.
In series [2] (compounds of Example 1), `CCCCC/C=C\C/C=C\CCCCCCCC(=O)N(CCCN(CC)CC)C(C(=O)NCCCCCCCCCCCCCCCCCC)C(CC)CCCC` (centres unmarked) [A4I18R3C18-2] returned a Local fluorescence intensity of 3.08E+07. For the same molecule, in series [3], the “Diameter of the nanoparticles” value is given as 83 ± 9 nm, the PDI stood at 0.12, the Zeta potential is recorded as −3.2 mV and the encapsulation efficiency is 75.3%. The molecule also gave a Bioluminescence intensity in series [4] (compounds of Example 1) of 2.29E+07.
In turn, `CCCCCCCCCCCCCCCCCCNC(=O)C(C1CCCCC1)N(CCCN(C)C)C(=O)CCCCCCCCCCCCCCCCC` (centres unmarked) [A23I18R2C18] yielded a Local fluorescence intensity in series [2] (compounds of Example 1) of 4.83E+04. Besides, the “Fluorescence intensity of liver” value in series [4] (compounds of Example 1) is 3.87E+05.
Taken in the same sequence, the figures for `CCCCCCCCCCCCCCCCCCNC(=O)C(C1CCCCC1)N(CCCN1CCOCC1)C(=O)CCCCCCCCCCCCCCCCC` (centres unmarked) [A23I18R5C18] were 9.13E+04 and 1.85E+03.
Taken in the same sequence, the figures for `CCCCC/C=C\C/C=C\CCCCCCCC(=O)N(CCN1CCCCC1)C(C(=O)NCCCCCCCCCCCCCCCCCC)C1CCCCC1` (centres unmarked) [A23I18R12C18-2] were 2.01E+06 and 6.30E+03.
